Data: paper PMC3293897, “Diphenyl Urea Derivatives as Inhibitors of Transketolase: A Structure-Based Virtual Screening” (PLoS ONE, 2012)
pIC50: −log10 of the molar value. Where two headings read alike, the source gives them in different places.

What was measured:
HCT116 cells = assay: MTT cell viability assay, HCT116; assay type: cell-based, human
Procedure: (§1) HCT116 human colon carcinoma cells (gift from Dr Capellà, Institut Català d'Oncologia, Barcelona, Spain) were grown in DMEM∶HAM F12 (1∶1), supplemented with 10% heat-inactivated foetal calf serum (FCS) (PAA Laboratories, Pasching, Austria), L-glutamine (2 mM), pyruvic acid (1 mM), non-essential aminoacids (1%) and antibiotics: 100 U×mL^−1 penicillin and 100 µg×mL^−1 streptomycin. HT29 human colon adenocarcinoma cells (obtained from the American Type Culture Collection -ATCC-) were grown in Dulbecco's Modified Eagle's Medium, 25 mM D-glucose, 4 mM L-glutamine supplemented with 10% heat-inactivated FCS, and antibiotics: 100 U×mL^−1 penicillin and 100 µg×mL^−1 streptomycin (Invitrogen, Paisley, UK). All cell cultures were carried out at 37°C in a humidified atmosphere with 5% CO2. Subconfluent monolayers of cells were used in all experiments.
(§2) Cell viability was determined using the MTT assay, which is based on the ability of live cells to cleave the tetrazolium ring, thus producing formazan, which absorbs at 570 nm. 5000 cells/well HT29 cells or 1700 cells/well HCT116 cells were seeded into 96-well plates and incubated for 24 h prior to the addition of the different compounds at different concentrations, in triplicate. After incubation for 72 h, the supernatant was aspirated and 100 µL of filtered MTT (0.5 mg/mL) was added to each well. Following 1 h of incubation, the supernatant was removed and the formazan precipitated was dissolved in DMSO. Relative cell viability was measured by absorbance at 550 nm on an ELISA plate reader (Tecan Sunrise MR20-301, TECAN, Austria). Concentrations that inhibited cell growth by 50% (IC50) after treatment were determined.

[1] = target: T1, Transketolase from cell extract (Homo sapiens, UniProt P29401); assay: Transketolase activity in cell extract (enzyme-linked NADH oxidation, spectrophotometric/fluorimetric); assay type: biochemical; settings: for inhibitory activity class (Figure 2): Figure 2 grouping
T1 construct: approximately 300 µg of protein cell extract used for the determination of transketolase enzyme activity; endogenous in cells; host or cells: Cultured cells
T1 sequence (P29401 1-623): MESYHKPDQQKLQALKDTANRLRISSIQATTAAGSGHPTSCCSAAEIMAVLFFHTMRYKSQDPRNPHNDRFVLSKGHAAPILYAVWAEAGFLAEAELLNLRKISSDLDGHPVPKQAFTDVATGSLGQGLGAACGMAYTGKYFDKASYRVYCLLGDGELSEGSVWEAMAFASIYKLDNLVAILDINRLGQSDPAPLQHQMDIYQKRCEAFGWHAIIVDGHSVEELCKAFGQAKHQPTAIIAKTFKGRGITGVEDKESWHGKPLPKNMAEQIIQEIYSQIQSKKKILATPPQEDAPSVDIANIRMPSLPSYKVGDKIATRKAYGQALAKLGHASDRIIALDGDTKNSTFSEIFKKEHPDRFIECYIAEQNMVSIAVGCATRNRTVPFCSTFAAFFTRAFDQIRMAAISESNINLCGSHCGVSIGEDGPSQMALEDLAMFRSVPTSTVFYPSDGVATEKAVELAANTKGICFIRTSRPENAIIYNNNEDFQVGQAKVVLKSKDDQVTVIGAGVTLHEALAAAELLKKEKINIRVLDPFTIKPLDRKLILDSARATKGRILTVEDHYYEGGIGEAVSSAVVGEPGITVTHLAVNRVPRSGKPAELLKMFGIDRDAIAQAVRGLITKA
Procedure: Cell cultures were washed with PBS, detached from the flasks using 0.025% trypsin-EDTA and then resuspended in lysis buffer (1 mM dithiothreitol, 1 mM EDTA, 0.02% Triton X-100, 0.02% sodium deoxycholate, 0.2 mM phenylmethylsulfonyl fluoride, 1% sodium azide and 20 mM Tris-HCl, pH 7.5). Cells were homogenized using a laboratory sonicator (1/2 Liter Branson 200 Ultrasonic bath, 5 min, 40 kHz, 4°C) and immediately ultracentrifuged at 105000×g for 1 hour at 4°C. The supernatant was separated and approximately 300 µg of protein cell extract used for the determination of transketolase enzyme activity using a Cobas Mira Plus chemistry analyzer (HORIBA ABX, Montpellier, France) or a spectrofluorimeter Kontron SFM-25 (Bio-Tek Instruments, VT, United States).
Transketolase (EC 2.2.1.1) activity was determined using the enzyme linked method described by Smeets and colleagues. Briefly, cell extract and inhibitors were added to a cuvette containing 5 mM MgCl2, 0.2 U×mL^−1 glycerophsphate dehydrogenase-triosephosphate isomerase (from rabbit muscle), 0.2 mM NADH, 0.1 mM thiamine pyrophosphate (TPP) and 50 mM Tris-HCl, pH 7.6 at 37°C. The reaction was initiated by the addition of 300 µL substrate mixture (see below) per mL of cuvette volume. The oxidation of NADH, which is directly proportional to transketolase activity, was followed by the decrease in absorbance at 340 nm (spectrophotometric method) or in fluorescence at 450 nm when excited at 330 nm (fluorimetric method) before and after the addition of the different compounds tested. A blank with all the assay components but the sample was performed in each experiment by measuring the oxidation of NADH. The substrate mixture was prepared by dissolving 50 mM ribose-5-phosphate in 50 mM Tris-HCl, pH 7.6, and adding 0.05 IU ribulose-5-phosphate-3-epimerase (from baker's yeast) and 0.25 IU phosphoriboisomerase (from spinach). The substrate mixture was continuously stirred and heated for 1 hour at 37°C and then kept at −20°C until use.
Protein concentration of cell extracts was determined using the BCA Protein Assay (Pierce Biotechnology, Rockford, IL) to calculate the specific activity of the transketolase enzyme.

HT29 cells = assay: MTT cell viability assay, HT29; assay type: cell-based, human
Procedure: as §1, §2

[2] = Homo sapiens, HCT-116, 72 h incubation, read-out: IC50 Cell viability (HCT116 cells)
[3] = Homo sapiens, HT-29, 72 h incubation, read-out: IC50 Cell viability (HT29 cells)

Row | SMILES | pIC50 (HCT116 cells; [2]) | pIC50 [1] | inhibitory activity class (Figure 2) [1] | pIC50 (HT29 cells; [3]) | transketolase inhibition in the enzymatic assay (in words) ([1]; cell extract) | pIC50 ([1]; cell extract, compound concentration varied 50 to 300 µM, read-out: IC50 Transketolase from cell extract) | pIC50 (HCT116 cells; 72 h incubation, read-out: IC50 cell viability (HCT116)) | pIC50 (HT29 cells; 72 h incubation, read-out: IC50 cell viability (HT29))
1 | O=C(Nc1ccccc1)Nc1cc(Cl)c([N+](=O)[O-])cc1O [T2B] | 4.92 | – | Actives | 5.22 | – | 4.00 | – | –
2 | CCc1ccc(NC(=O)Nc2cccc([N+](=O)[O-])c2)c(CC)c1 [T2D] | < 3.70 | < 3.70 | Inactives | < 3.70 | no inhibition of transketolase | – | – | –
3 | O=[N+]([O-])c1cccc(NC(=S)Nc2cc(Cl)ccc2O)c1 [T2E] | 4.89 | < 3.70 | Inactives | 4.70 | poorly active | – | – | –
4 | Cc1c(Cl)cccc1NC(=O)Nc1cccc(O)c1 [T2F] | – | < 3.70 | Inactives | – | no activity | – | – | –
5 | Cc1ncc(C[n+]2csc(CCO)c2C)c(=O)[nH]1 [oxythiamine, reference compound] | – | – | – | – | – | – | 2.10 | 2.10

Continued, in another order:

Row | pIC50 (HCT116 cells; [2]) | pIC50 [1] | inhibitory activity class (Figure 2) [1] | pIC50 (HT29 cells; [3]) | transketolase inhibition in the enzymatic assay (in words) ([1]; cell extract) | SMILES | pIC50 ([1]; cell extract, compound concentration varied 50 to 300 µM, read-out: IC50 Transketolase from cell extract) | pIC50 (HCT116 cells; 72 h incubation, read-out: IC50 cell viability (HCT116)) | pIC50 (HT29 cells; 72 h incubation, read-out: IC50 cell viability (HT29))
6 | 4.77 | 3.82 | Actives | 4.82 | – | Cc1ccc([N+](=O)[O-])cc1NC(=O)Nc1cccc2c(O)cccc12 [T2A] | – | – | –
7 | 3.70 | < 3.70 | Inactives | 3.70 | inactive | Cc1c(Cl)cccc1NC(=O)Nc1ccc(CC(=O)O)cc1 [T2C] | – | – | –
8 | 5.05 | 3.70 | Actives | 5.00 | – | Cc1c(Cl)cccc1NC(=O)Nc1cc([N+](=O)[O-])ccc1O [T2] | – | – | –
